Among the data in ChEMBL document CHEMBL4483862, “Open-source discovery of chemical leads for next-generation chemoprotective antimalarials” (2018) are IC50 and IC90 values, retold here.

A value given as a limit tells only on which side of the number the result lay.

This assay relates to Plasmodium berghei. Put plainly: Luciferase/luciferin-expressing antifolate-resistant parasites were used to infect a culture of HepG2 cells that were pre-incubated with compounds. Infected hepatocytes emit light due to the luciferase reaction. Assay results are presented as the percent inhibition of light emission compared to control. […]. It counts as functional. Particulars: sporozoite; for IC90: read-out: LUCIFERASE INFECTION ASSAY - IC90.

In the case of `Cc1ccc2[nH]c3c(c2c1)CCCC3NCCCN(C)C` (stereo not drawn), the IC90 is above 11.5 µM. The IC50 (HEPG2TOX_HILL_SLOPE 41.7, HEPG2TOX_R_SQUARED 0.689, PBLUC_HILL_SLOPE 2.08, PBLUC_R_SQUARED 0.555, read-out: LUCIFERASE INFECTION ASSAY - IC50) amounted to 4.94 µM.

Consider `O=C1C=CC(=O)N1Cc1cccs1`, for which the IC90 amounted to 7.49 µM. Also, the concentration for half-maximal inhibition (IC50) (HEPG2TOX_HILL_SLOPE 35.1, HEPG2TOX_R_SQUARED 0.828, PBLUC_HILL_SLOPE 12.7, PBLUC_R_SQUARED 0.168, read-out: LUCIFERASE INFECTION ASSAY - IC50) worked out at 6.3 µM.

Consider `CC(C)Oc1ccc(Nc2nccc3[nH]c(-c4ccccc4)cc23)cc1`, for which the IC90 is 4.19 µM. The IC50 (HEPG2TOX_HILL_SLOPE 24.7, HEPG2TOX_R_SQUARED 0.868, PBLUC_HILL_SLOPE 10.9, PBLUC_R_SQUARED 0.493, read-out: LUCIFERASE INFECTION ASSAY - IC50) came to 3.42 µM.

`Clc1ccc(Cl)c(-c2ccc(CNCCN3CCNCC3)o2)c1`: the IC90 was found to be 7.07 µM. The IC50 (HEPG2TOX_HILL_SLOPE 36.7, HEPG2TOX_R_SQUARED 0.263, PBLUC_HILL_SLOPE 4.39, PBLUC_R_SQUARED 0.663, read-out: LUCIFERASE INFECTION ASSAY - IC50) was found to be 4.28 µM.

Take `C=C(C)CN(CC)c1nc(N)c(C#N)c(C(C#N)Cc2ccc(C)cc2)c1C#N` (stereo not drawn): the IC90 amounted to 8.18 µM. For the same molecule, where the note is “HEPG2TOX_HILL_SLOPE 73.4, HEPG2TOX_R_SQUARED 0.557, PBLUC_HILL_SLOPE 3.82, PBLUC_R_SQUARED 0.311, read-out: LUCIFERASE INFECTION ASSAY - IC50”, the IC50 turned out to be 4.6 µM.

`N#Cc1cc(-c2ccc(Cl)cc2)cnc1OC(=O)c1ccc(Cl)cc1`: the IC90 is above 8.94 µM. Moreover, under “HEPG2TOX_HILL_SLOPE 24.3, HEPG2TOX_R_SQUARED 0.913, PBLUC_HILL_SLOPE 3.24, PBLUC_R_SQUARED 0.477, read-out: LUCIFERASE INFECTION ASSAY - IC50”, the IC50 amounted to 6.19 µM.

With `O=C(Nc1ccc(Cl)cc1)Nc1ccc2c(c1)no[n+]2[O-]`, the IC90 was 8.03 µM. Also, the IC50 (HEPG2TOX_HILL_SLOPE 58.7, HEPG2TOX_R_SQUARED 0.822, PBLUC_HILL_SLOPE 3.98, PBLUC_R_SQUARED 0.47, read-out: LUCIFERASE INFECTION ASSAY - IC50) was found to be 4.62 µM.

With `N#Cc1ccc(NC(=O)Cn2ncc(Cl)c(Cl)c2=O)cc1`, the IC90 turned out to be 5.23 µM. For the same molecule, the IC50 (HEPG2TOX_HILL_SLOPE 73.2, HEPG2TOX_R_SQUARED 0.451, PBLUC_HILL_SLOPE 8.64, PBLUC_R_SQUARED 0.375, read-out: LUCIFERASE INFECTION ASSAY - IC50) turned out to be 4.06 µM.

With `N#Cc1ccc(C(=O)Nc2ccc(Br)c(C(F)(F)F)c2)cc1`, the IC90 was 9.89 µM. For the setting “HEPG2TOX_HILL_SLOPE 28, HEPG2TOX_R_SQUARED 0.813, PBLUC_HILL_SLOPE 18.1, PBLUC_R_SQUARED 0.807, read-out: LUCIFERASE INFECTION ASSAY - IC50”, the IC50 is 8.76 µM.

Regarding `O=C(Nc1ccc(Cl)cc1)n1ccc(/C=C/c2ncc(C(F)(F)F)cc2Cl)n1`, the IC90 is above 7.72 µM. The half-maximal inhibitory concentration (IC50) (HEPG2TOX_HILL_SLOPE 28.5, HEPG2TOX_R_SQUARED 0.883, PBLUC_HILL_SLOPE 15.5, PBLUC_R_SQUARED 0.352, read-out: LUCIFERASE INFECTION ASSAY - IC50) was 7.23 µM.

In the case of `CCC1CCCCN1C(=O)CSC(=Nc1ccccc1F)C(C#N)c1nc2ccccc2s1` (stereo not drawn), the IC90 came to 9.73 µM. Further, the concentration for half-maximal inhibition (IC50) (HEPG2TOX_HILL_SLOPE 76.7, HEPG2TOX_R_SQUARED 0.475, PBLUC_HILL_SLOPE 22.7, PBLUC_R_SQUARED 0.0851, read-out: LUCIFERASE INFECTION ASSAY - IC50) worked out at 8.83 µM.

For `O=C(Cn1ncc(Cl)c(Cl)c1=O)N(CCc1ccccc1)Cc1ccccc1`, the IC90 worked out at 6.37 µM. Also, the IC50 (HEPG2TOX_HILL_SLOPE 33, HEPG2TOX_R_SQUARED 0.912, PBLUC_HILL_SLOPE 70.8, PBLUC_R_SQUARED 0.26, read-out: LUCIFERASE INFECTION ASSAY - IC50) amounted to 6.18 µM.

On to `CCn1nnnc1Sc1nc(C)nc2sc3c(c12)CCC3`, for which the 90% effect concentration (IC90) was 3.73 µM. Also, the 50% inhibitory concentration (IC50) (HEPG2TOX_HILL_SLOPE 68.5, HEPG2TOX_R_SQUARED 0.626, PBLUC_HILL_SLOPE 11, PBLUC_R_SQUARED 0.226, read-out: LUCIFERASE INFECTION ASSAY - IC50) turned out to be 3.05 µM.

On to `CCn1c2ccccc2c2cc(CN(C)C(=O)Cn3nnc4ccccc43)ccc21`, for which the IC90 worked out at 2.08 µM. For the same molecule, for the setting “HEPG2TOX_HILL_SLOPE 27.9, HEPG2TOX_R_SQUARED 0.506, PBLUC_HILL_SLOPE 3.75, PBLUC_R_SQUARED 0.455, read-out: LUCIFERASE INFECTION ASSAY - IC50”, the IC50 is 1.16 µM.

For `O=C(CN1CC=C(c2c[nH]c3ccccc23)CC1)Nc1ccccc1OC(F)F`, the IC90 is above 10 µM. Further, the IC50 (HEPG2TOX_HILL_SLOPE 99.6, HEPG2TOX_R_SQUARED 0.512, PBLUC_HILL_SLOPE 10, PBLUC_R_SQUARED 0.0817, read-out: LUCIFERASE INFECTION ASSAY - IC50) is above 10 µM.

In the case of `COc1ccc(-c2nc3ccc(NC(=O)Nc4ccc(C)cc4)cn3n2)cc1`, the IC90 was 7.53 µM. The IC50 (HEPG2TOX_HILL_SLOPE 50, HEPG2TOX_R_SQUARED 0.291, PBLUC_HILL_SLOPE 5.1, PBLUC_R_SQUARED 0.322, read-out: LUCIFERASE INFECTION ASSAY - IC50) amounted to 4.9 µM.

Take `CC1CCC/C(=C(/C#N)c2nc(-c3ccccc3O)cs2)C1` (stereo not drawn): the IC90 was 5.31 µM. Also, the IC50 (HEPG2TOX_HILL_SLOPE 34.1, 11.7, HEPG2TOX_R_SQUARED 0.352, 0.945, PBLUC_HILL_SLOPE 13.4, PBLUC_R_SQUARED 0.235, read-out: LUCIFERASE INFECTION ASSAY - IC50) was determined as 4.51 µM.

As to `CCCCSc1scc(-c2ccc(Cl)c(Cl)c2)c1C#N`, the IC90 was above 9.64 µM. Further, under “HEPG2TOX_HILL_SLOPE 94.8, HEPG2TOX_R_SQUARED 0.896, read-out: LUCIFERASE INFECTION ASSAY - IC50”, the half-maximal inhibitory concentration (IC50) is above 9.64 µM.

For `c1ccc(Oc2ccccc2-c2cnc3c(NCCc4cccnc4)nccn23)cc1`, the IC90 worked out at 7.62 µM. In addition, where the note is “HEPG2TOX_HILL_SLOPE 47.6, HEPG2TOX_R_SQUARED 0.873, PBLUC_HILL_SLOPE 7.25, PBLUC_R_SQUARED 0.536, read-out: LUCIFERASE INFECTION ASSAY - IC50”, the IC50 stood at 5.63 µM.

Regarding `CCN1C(=O)N(Cc2ccccn2)C(=O)C12CCN(Cc1ccc3c(c1)Cc1ccccc1-3)CC2`, the IC90 is 6.49 µM. The IC50 (HEPG2TOX_HILL_SLOPE 46.6, HEPG2TOX_R_SQUARED 0.935, PBLUC_HILL_SLOPE 4.5, PBLUC_R_SQUARED 0.25, read-out: LUCIFERASE INFECTION ASSAY - IC50) was determined as 3.98 µM.

On to `COc1ccc(-c2cc(CN(C)c3ccc(S(=O)(=O)NC(C)(C)C)cc3[N+](=O)[O-])on2)cc1`, for which the IC90 was found to be 4.2 µM. Besides, the IC50 (HEPG2TOX_HILL_SLOPE 80.3, HEPG2TOX_R_SQUARED 0.674, PBLUC_HILL_SLOPE 12.7, PBLUC_R_SQUARED 0.427, read-out: LUCIFERASE INFECTION ASSAY - IC50) worked out at 3.54 µM.

Take `CCN(CC)c1ccc(/C=C(\C#N)c2nc3c(s2)CC(C)CC3)cc1` (stereo not drawn): the IC90 was above 10 µM. Moreover, for the setting “HEPG2TOX_HILL_SLOPE 34.4, HEPG2TOX_R_SQUARED 0.353, PBLUC_HILL_SLOPE 1.55, PBLUC_R_SQUARED 0.645, read-out: LUCIFERASE INFECTION ASSAY - IC50”, the IC50 amounted to 4.58 µM.

Consider `O=C(NNc1ccccc1)c1cccs1`, for which the IC90 is 7.33 µM. Besides, the IC50 (HEPG2TOX_HILL_SLOPE 91.6, HEPG2TOX_R_SQUARED 0.623, PBLUC_HILL_SLOPE 5.23, PBLUC_R_SQUARED 0.266, read-out: LUCIFERASE INFECTION ASSAY - IC50) was determined as 4.82 µM.

On to `COc1ccc(CCN2C(=O)N(CC(C)C)C(=O)C23CCN(C2CCc4ccccc4C2)CC3)cc1` (stereo not drawn), for which the IC90 is 2.72 µM. Further, the IC50 (HEPG2TOX_HILL_SLOPE 52.5, HEPG2TOX_R_SQUARED 0.896, PBLUC_HILL_SLOPE 13.1, PBLUC_R_SQUARED 0.487, read-out: LUCIFERASE INFECTION ASSAY - IC50) amounted to 2.3 µM.

In the case of `Cc1ccc(C(CCNCc2ccc(F)cc2)c2ccco2)cc1` (stereo not drawn), the IC90 worked out at 0.384 µM. Moreover, the IC50 (HEPG2TOX_HILL_SLOPE 46.4, HEPG2TOX_R_SQUARED 0.442, PBLUC_HILL_SLOPE 99.4, PBLUC_R_SQUARED 0.619, read-out: LUCIFERASE INFECTION ASSAY - IC50) was determined as 0.376 µM.

As for `COC(=O)c1ccc(/C=C/C(=O)c2ccccc2F)cc1`, the IC90 was above 10 µM. The IC50 (HEPG2TOX_HILL_SLOPE 28.5, HEPG2TOX_R_SQUARED 0.619, read-out: LUCIFERASE INFECTION ASSAY - IC50) was above 10 µM.

With `Cc1cccc(C=C(C(=O)NC(C)c2ccccc2)C(=O)NC(C)c2ccccc2)c1` (stereo not drawn), the IC90 amounted to 8.3 µM. Besides, under “HEPG2TOX_HILL_SLOPE 105, HEPG2TOX_R_SQUARED 0.565, PBLUC_HILL_SLOPE 4.68, PBLUC_R_SQUARED 0.0675, read-out: LUCIFERASE INFECTION ASSAY - IC50”, the IC50 turned out to be 5.19 µM.

Regarding `COc1ccc(CNCCC(c2ccc(F)cc2)c2ccco2)cc1` (stereo not drawn), the IC90 is 1.22 µM. The IC50 (HEPG2TOX_HILL_SLOPE 73.6, HEPG2TOX_R_SQUARED 0.521, PBLUC_HILL_SLOPE 15.7, PBLUC_R_SQUARED 0.627, read-out: LUCIFERASE INFECTION ASSAY - IC50) came out at 1.06 µM.

As to `Cc1oc2c(c1C(=O)NCC1CCCO1)C(=O)c1ccccc1C2=O` (stereo not drawn), the IC90 amounted to 0.328 µM. Further, the IC50 (HEPG2TOX_HILL_SLOPE 84.1, HEPG2TOX_R_SQUARED 0.355, PBLUC_HILL_SLOPE 3.6, PBLUC_R_SQUARED 0.607, read-out: LUCIFERASE INFECTION ASSAY - IC50) is 0.178 µM.
